The values below come from PubChem BioAssay AID248 (DTP/NCI, 2004).

Where “and” joins values, the source holds several entries; their conditions need not be identical. Equal entries are not always repeated. Toxic doses and inconclusive results are not listed.

The experiment has as its system L1210 leukemia ip in BDF1 mice, survival T/C. In words: NCI In Vivo Anticancer Drug Screen. Data for tumor model L1210 Leukemia (intraperitoneal) in B6D2F1 (BDF1) mice. Particulars: higher = longer survival. In a few lines:
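Mice bearing the transplanted tumor received compound or vehicle. Survival of the treated group was divided by that of the vehicle-treated control group to give the ratio.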

The mark [1] stands for this setting: endpoint: mean survival time, dose: 5.0 mg/kg/injection, schedule: Q01DX001 (ip), vehicle: saline.
Setting [2] is: endpoint: mean survival time, dose: 10.0 mg/kg/injection, schedule: Q01DX001 (ip), vehicle: saline.
Setting [3] is: endpoint: mean survival time, dose: 20.0 mg/kg/injection, schedule: Q01DX001 (ip), vehicle: saline.
[4] abbreviates: endpoint: mean survival time, dose: 100.0 mg/kg/injection, schedule: Q01DX001 (ip), vehicle: saline.
The mark [5] stands for this setting: endpoint: mean survival time, dose: 100.0 mg/kg/injection, schedule: Q04DX003 (ip), vehicle: Klucel (hydroxypropylcellulose) (HPC).
The mark [6] stands for this setting: endpoint: mean survival time, dose: 200.0 mg/kg/injection, schedule: Q04DX003 (ip), vehicle: Klucel (hydroxypropylcellulose) (HPC).
The mark [7] stands for this setting: endpoint: mean survival time, dose: 400.0 mg/kg/injection, schedule: Q04DX003 (ip), vehicle: Klucel (hydroxypropylcellulose) (HPC).
The mark [8] stands for this setting: endpoint: mean survival time, dose: 50.0 mg/kg/injection, schedule: Q01DX009 (ip), vehicle: Klucel (hydroxypropylcellulose) (HPC).
Where [9] appears, read: endpoint: mean survival time, dose: 100.0 mg/kg/injection, schedule: Q01DX009 (ip), vehicle: gum acacia.
[10] abbreviates: endpoint: mean survival time, dose: 100.0 mg/kg/injection, schedule: Q04DX003 (ip), vehicle: gum acacia.
Setting [11] is: endpoint: mean survival time, dose: 200.0 mg/kg/injection, schedule: Q01DX009 (ip), vehicle: gum acacia.
[12] abbreviates: endpoint: mean survival time, dose: 200.0 mg/kg/injection, schedule: Q04DX003 (ip), vehicle: gum acacia.
[13] abbreviates: endpoint: mean survival time, dose: 400.0 mg/kg/injection, schedule: Q04DX003 (ip), vehicle: gum acacia.
[14] abbreviates: endpoint: mean survival time, dose: 100.0 mg/kg/injection, schedule: Q01DX009 (ip), vehicle: Klucel (hydroxypropylcellulose) (HPC).
Where [15] appears, read: endpoint: mean survival time, dose: 200.0 mg/kg/injection, schedule: Q01DX009 (ip), vehicle: Klucel (hydroxypropylcellulose) (HPC).

In the case of `COc1ccc2nc3cc(Cl)ccc3c(Nc3ccc(O)c(CN(CCCl)CCCl)c3)c2c1`, the T/C (endpoint: mean survival time, dose: 0.3 mg/kg/injection, schedule: Q01DX Z (ip), vehicle: saline) is 118 % of control; the T/C (endpoint: mean survival time, dose: 4.8 mg/kg/injection, schedule: Q01DX Z (ip), vehicle: saline) is 94 % of control; the T/C under setting [1] is 111 % of control; the T/C (endpoint: mean survival time, dose: 7.5 mg/kg/injection, schedule: Q04DX003 (ip), vehicle: saline) was 120 % of control; the T/C under setting [2] is 108 % of control; the T/C under setting [3] was 104 % of control. Moreover, the T/C under setting [4] was 87 % of control.
`CC(c1ccc2ccccc2c1)c1ccccc1C(=O)O` (stereo not drawn): the T/C reads like this: (endpoint: mean survival time, dose: 100.0 mg/kg/injection, schedule: Q01DX001 (ip), vehicle: gum acacia) 94 % of control; (endpoint: mean survival time, dose: 200.0 mg/kg/injection, schedule: Q01DX001 (ip), vehicle: gum acacia) 102 % of control; (endpoint: mean survival time, dose: 400.0 mg/kg/injection, schedule: Q01DX001 (ip), vehicle: gum acacia) 89 % of control.
Consider `CCCCOP(=O)(OCCCC)C(=O)N(CC)CC`, for which the T/C runs as follows: under setting [5], 112 % of control; under setting [6], 101 % of control; under setting [7], 93 % of control.
For the compound `O=[N+]([O-])c1cccc(-[n+]2cc([O-])on2)c1`, the T/C was 94 % of control under setting [8], 105 % of control under setting [5] and 96 % of control under setting [6].
In the case of `O=C1CCCCCCCCC(=O)CCCCCCCC1`, the T/C (endpoint: mean survival time, dose: 100.0 mg/kg/injection, schedule: Q04DX003 (ip), vehicle: saline with Tween-80) is 89 % of control; the T/C (endpoint: mean survival time, dose: 200.0 mg/kg/injection, schedule: Q04DX003 (ip), vehicle: saline with Tween-80) is 86 % of control; the T/C (endpoint: mean survival time, dose: 400.0 mg/kg/injection, schedule: Q04DX003 (ip), vehicle: saline with Tween-80) is 100 % of control.
`C[N+](C)(C)CCC[N+]1(C)CC2C3CCCCC3=C3CCCCC3C2C1` (stereo not drawn): the T/C under setting [1] is 95 % of control, the T/C under setting [2] was 98 % of control and the T/C under setting [3] was 101 % of control.
As for `Cc1cccc(C2NC(=O)N3C(c4cccc(C)c4)NC(=O)N23)c1` (stereo not drawn), the T/C was 89 % of control under setting [9]; 88 % of control under setting [10]; 88 % of control under setting [11]; 93 % of control under setting [12]; 90 % of control under setting [13].
On to `NC(CS)=NCCc1nc2ccccc2[nH]1`, for which the T/C (endpoint: mean survival time, dose: 100.0 mg/kg/injection, schedule: Q04DX002 (ip), vehicle: saline) is 107 % of control.
As to `NC(=O)OCC(COC(N)=O)(c1ccccc1)c1ccccc1`, the T/C reads like this: (endpoint: mean survival time, dose: 45.0 mg/kg/injection, schedule: Q01DX001 (ip), vehicle: saline) 101 % of control; (endpoint: mean survival time, dose: 67.0 mg/kg/injection, schedule: Q01DX001 (ip), vehicle: saline) 95 % of control and 101 % of control; under setting [4], 98 % of control; (endpoint: mean survival time, dose: 150.0 mg/kg/injection, schedule: Q01DX001 (ip), vehicle: saline) 95 % of control and 104 % of control.
As for `Oc1cc(Cl)c(Cl)cc1Cl.[Cu+2]`, the T/C is, setting by setting: (endpoint: mean survival time, dose: 12.5 mg/kg/injection, schedule: Q04DX003 (ip), vehicle: gum acacia) 92 % of control; (endpoint: mean survival time, dose: 25.0 mg/kg/injection, schedule: Q04DX003 (ip), vehicle: gum acacia) 93 % of control.
`CC(C)N(CCSC(=O)N1c2ccccc2Sc2cccnc21)C(C)C`: the T/C is 90 % of control (endpoint: mean survival time, dose: 5.0 mg/kg/injection, schedule: Q04DX003 (ip), vehicle: Klucel (hydroxypropylcellulose) (HPC)) and 110 % of control (endpoint: mean survival time, dose: 10.0 mg/kg/injection, schedule: Q04DX003 (ip), vehicle: Klucel (hydroxypropylcellulose) (HPC)).
For the compound `CCCCNc1ccc(C(=O)O)cc1`, the T/C is, setting by setting: under setting [9], 97 % of control; under setting [10], 90 % of control; under setting [11], 92 % of control; under setting [12], 91 % of control; (endpoint: mean survival time, dose: 400.0 mg/kg/injection, schedule: Q01DX009 (ip), vehicle: gum acacia) 93 % of control; under setting [13], 93 % of control.
Regarding `CCOC(=O)c1c[nH]c2oc(/C=N/N3CC(CN4CCOCC4)OC3=O)cc2c1=O` (stereo not drawn), the T/C by setting is: (endpoint: median survival time, dose: 25.0 mg/kg/injection, schedule: Q01DX009 (ip), vehicle: acid diluted with saline) 110 % of control; (endpoint: median survival time, dose: 50.0 mg/kg/injection, schedule: Q01DX009 (ip), vehicle: acid diluted with saline) 111 % of control; (endpoint: median survival time, dose: 200.0 mg/kg/injection, schedule: Q01DX009 (ip), vehicle: acid diluted with saline) 152 % of control.
`Cc1ccc(-c2cc3ccccc3[nH]2)cc1`: the T/C by setting is: under setting [8], 94 % of control; under setting [14], 89 % of control; under setting [5], 91 % of control; under setting [15], 86 % of control; under setting [6], 90 % of control.
On to `CC(C)c1ccc(C(c2c(O)c3ccccc3oc2=O)c2c(O)c3ccccc3oc2=O)cc1`, for which the T/C is 90 % of control under setting [14]; 106 % of control under setting [5]; 103 % of control under setting [15]; 100 % of control under setting [6]; 105 % of control under setting [7].
In the case of `O=C(OC(=O)c1cccc2ccccc12)c1cccc2ccccc12`, the T/C reads like this: under setting [4], 94 % of control; (endpoint: mean survival time, dose: 200.0 mg/kg/injection, schedule: Q01DX001 (ip), vehicle: saline) 102 % of control; (endpoint: mean survival time, dose: 400.0 mg/kg/injection, schedule: Q01DX001 (ip), vehicle: saline) 94 % of control.
Turning to `COc1ccccc1C1CCCC2C(Oc3ccc([N+](=O)[O-])cc3)OC12` (stereo not drawn), the T/C was 87 % of control (endpoint: mean survival time, dose: 50.0 mg/kg/injection, schedule: Q01DX009 (ip), vehicle: saline with Tween-80) and 100 % of control (endpoint: mean survival time, dose: 100.0 mg/kg/injection, schedule: Q01DX009 (ip), vehicle: saline with Tween-80).
Turning to `Cn1cnc([N+](=O)[O-])c1C(N)=O`, the T/C by setting is: (endpoint: mean survival time, dose: 100.0 mg/kg/injection, schedule: Q04DX002 (ip), vehicle: Klucel (hydroxypropylcellulose) (HPC)) 88 % of control; (endpoint: mean survival time, dose: 200.0 mg/kg/injection, schedule: Q04DX002 (ip), vehicle: Klucel (hydroxypropylcellulose) (HPC)) 95 % of control; (endpoint: mean survival time, dose: 400.0 mg/kg/injection, schedule: Q04DX002 (ip), vehicle: Klucel (hydroxypropylcellulose) (HPC)) 88 % of control.
Regarding `Cc1ccc(S(=O)NOCc2ccccc2)cc1` (stereo not drawn), the T/C was 95 % of control under setting [5], 105 % of control under setting [6] and 100 % of control under setting [7].
Regarding `O=C(CCCCC(=O)Nc1ccc(C(=O)Nc2cc(C3=NCCN3)cc(C3=NCCN3)c2)cc1)Nc1ccc(C(=O)Nc2cc(C3=NCCN3)cc(C3=NCCN3)c2)cc1`, the T/C reads like this: (endpoint: mean survival time, dose: 35.0 mg/kg/injection, schedule: Q01DX Z (ip), vehicle: saline) 102 % of control; (endpoint: mean survival time, dose: 55.0 mg/kg/injection, schedule: Q01DX Z (ip), vehicle: saline) 103 % of control.
